Measurements reported in patent publication US20060258599A1, “Methods and composition for the treatment of cystic fibrosis and related illnesses” (priority 2005, published 2006).
Like-named read-outs stand apart in the source and are kept apart here.

What was measured:
[1] = system: glutathione S-transferase; conditions: cited from earlier work; for glutathione S-transferase activity: HT29 cells
[2] = system: individual who is a carrier of the CF gene; test: Fatty acid profile blood tests before and after 10-day oral isothiocyanate (individual study); assay type: in vivo, human
Protocol: Example 1. Individual study based on 10 mg consumption of BITC. An isothiocyanate of 10 mg was taken orally per day for 10 days by an individual who is a carrier of the CF gene. Blood tests were performed before and after the 10-day study to determine the fatty acid levels before and after administration of the isothiocyanate.

[3] = +10 days vs baseline, 10 mg orally per day

## S=C=NCc1ccccc1 [BITC, benzyl isothiocyanate]
[1]; HT29 cells cultures exposed to BITC
  effect on glutathione S-transferase activity (in words): statistically significant increase
[1]; 5 μmol/L of BITC
  glutathione S-transferase activity: ~0.51 μmol min^−1 mg proteins^−1
[1]; 25 μmol/L of BITC
  glutathione S-transferase activity: ~0.74 μmol min^−1 mg protein^−1
[2]; [3]
  Arachidic Acid, % Change: −8.93%
  Arachidonic Acid, % Change: −3.31%
  DHA C22:6W3, % Change: 36.29%
  DPA C22 6W3, % Change: −5.19%
  DPA C22:6W6, % Change: −8.7%
  DTA C22 4W6T, % Change: 6.45%
  Docosanoic Acid C22:0, % Change: 22.59%
  Docosanoic Acid C22:1, % Change: 0%
  EPA, % Change: 18.57%
  Hexacosanoic Acid C24:0, % Change: 33.33%
  Hexacosanoic Acid C28:1, % Change: 29.17%
  Mead Acid, % Change: 0%
  Nervonic Acid, % Change: −2.47%
  Phytanic Acid, % Change: 18.8%
  Priatanic Acid, % Change: 11.11%
  Tetracosanoic Acid, % Change: 24.6%
  Tiete Tebrana Ratio, % Change: 0%
  Total Fatty Acids, % Change: 1.87%
  Total Monounsaturated, % Change: 12%
  Total Polyunsaturated, % Change: 4.35%
  Total Saturated, % Change: 0%
  Total w3, % Change: 20%
  Total w61, % Change: 2.44%
  h-g-Linoleic Acid, % Change: −9.88%
[2]; blood test after 10 mg orally per day for 10 days, baseline 0.031
  Tiete Tebrana Ratio, +10 days: 0.031
[2]; blood test after 10 mg orally per day for 10 days, baseline 0.09
  Priatanic Acid, +10 days: 0.1
[2]; blood test after 10 mg orally per day for 10 days, baseline 0.3
  Hexacosanoic Acid C24:0, +10 days: 0.4
[2]; blood test after 10 mg orally per day for 10 days, baseline 0.48
  Hexacosanoic Acid C28:1, +10 days: 0.62
[2]; blood test after 10 mg orally per day for 10 days, baseline 0.5
  Total w3, +10 days: 0.6
[2]; blood test after 10 mg orally per day for 10 days, baseline 1.33
  Phytanic Acid, +10 days: 1.58
[2]; blood test after 10 mg orally per day for 10 days, baseline 2.5
  Total Monounsaturated, +10 days: 2.8
[2]; blood test after 10 mg orally per day for 10 days, baseline 3
  Docosanoic Acid C22:1, +10 days: 3
[2]; blood test after 10 mg orally per day for 10 days, baseline 3.5
  Total Saturated, +10 days: 3.5
[2]; blood test after 10 mg orally per day for 10 days, baseline 4.1
  Total w61, +10 days: 4.2
[2]; blood test after 10 mg orally per day for 10 days, baseline 4.6
  Total Polyunsaturated, +10 days: 4.8
[2]; blood test after 10 mg orally per day for 10 days, baseline 10.7
  Total Fatty Acids, +10 days: 10.9
[2]; blood test after 10 mg orally per day for 10 days, baseline 23
  DPA C22:6W6, +10 days: 21
[2]; blood test after 10 mg orally per day for 10 days, baseline 25
  Mead Acid, +10 days: 25
[2]; blood test after 10 mg orally per day for 10 days, baseline 31
  DTA C22 4W6T, +10 days: 33
[2]; blood test after 10 mg orally per day for 10 days, baseline 44.3
  Tetracosanoic Acid, +10 days: 55.2
[2]; blood test after 10 mg orally per day for 10 days, baseline 56
  Arachidic Acid, +10 days: 51
[2]; blood test after 10 mg orally per day for 10 days, baseline 60.2
  Docosanoic Acid C22:0, +10 days: 73.8
[2]; blood test after 10 mg orally per day for 10 days, baseline 70
  EPA, +10 days: 83
[2]; blood test after 10 mg orally per day for 10 days, baseline 77
  DPA C22 6W3, +10 days: 73
[2]; blood test after 10 mg orally per day for 10 days, baseline 81
  Nervonic Acid, +10 days: 79
[2]; blood test after 10 mg orally per day for 10 days, baseline 243
  h-g-Linoleic Acid, +10 days: 219
[2]; blood test after 10 mg orally per day for 10 days, baseline 248
  DHA C22:6W3, +10 days: 338
[2]; blood test after 10 mg orally per day for 10 days, baseline 847
  Arachidonic Acid, +10 days: 819
